# Results as given in patent US20040214832A1, “Piperazine derivative renin inhibitors” (priority 2003, published 2004).
# Target: T1, human renin (Homo sapiens, UniProt P00797)
# T1 sequence (P00797 67-406): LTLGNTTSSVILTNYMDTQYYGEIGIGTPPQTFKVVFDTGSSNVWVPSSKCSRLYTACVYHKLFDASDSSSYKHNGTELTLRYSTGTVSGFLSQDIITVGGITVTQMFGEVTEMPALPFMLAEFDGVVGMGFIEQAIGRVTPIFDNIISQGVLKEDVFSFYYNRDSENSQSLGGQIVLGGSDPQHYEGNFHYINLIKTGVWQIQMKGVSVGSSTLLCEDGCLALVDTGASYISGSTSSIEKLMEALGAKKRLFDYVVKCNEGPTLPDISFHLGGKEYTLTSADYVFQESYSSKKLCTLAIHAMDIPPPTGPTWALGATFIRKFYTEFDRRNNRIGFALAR
# Assay: Determination of renin IC50 by tGFP FRET assay
# Type: biochemical
# Conditions: Human recombinant renin, tandem GFP substrate 650 nM, 60 min incubation with compound, pH 7.4, 11-point curve
# Text: Determination of Renin IC50 by tGFP FRET Assay
# The tGFP FRET (fluorescence resonance energy transfer) assay utilizes a tandem GFP substrate (60 kDa, Discovery Technologies) containing nine amino acid recognition sequences for human renin flanked by two GFP proteins. The assay is used to determine the ability of a compound to act as an inhibitor of renin enzymatic activity by determination of that concentration of test compound that inhibits by 50% (IC50) the ability of renin to cleave the tandem GFP substrate. The IC50 values are determined over an 11-point curve at concentrations of 100 μM to 1 pM. Each compound concentration used to construct the curve was dependent on renin inhibitor potency. For example, subnanomolar IC50 values were determined over an 11-point curve at concentrations of 10 μM to 1 pM. All other IC50 values were determined over an 11-point curve at concentrations of 100 μM to 0.0065 μM. The concentrations were achieved by diluting a 9.1 nM stock of Human recombinant renin in the appropriate amount of buffer containing 50 mM HEPES, 1 mM EDTA, 1% PEG (8000 MW), 1 mM DTT, 0.1% BSA, pH 7.4 to achieve the final concentration of 50.4 μIU. The tGFP substrate stock solution of 43 μM was diluted with the appropriate amount of the above buffer to obtain the final concentration of 650 nM. In addition, 1 μl of the compound is diluted in dimethylsulfoxide (DMSO) to represent an […] log scale (5% final). The SR renin and compound are added to a 384 capacity plate by an automated robot (BIOMEK). The plate is incubated for 60 minutes; upon completion the tGFP substrate is added.
# The IC50 is determined by monitoring the increase in […] at 432/432 nm excitation, 530/475 nm emission with a cutoff at 515/455 nm, in a fluorometric plate reader.
row,IC50 [µM],Compound
1,0.372,"COc1ccccc1COCCCOc1ccc(N2C(=O)CNC[C@@H]2COCc2cccc(C)c2)cc1 [Example 15, (6R)-1-{4-[3-(2-methoxybenzyloxy)-propoxy]-phenyl}-6-(3-methylbenzyloxymethyl)-piperazin-2-one]"
2,> 1,"COc1ccccc1COCCCOc1ccc(N2C(=O)CNC[C@@H]2COCc2c(F)cccc2F)cc1 [Example 16, (6R)-6-(2,6-difluorobenzyloxymethyl)-1-{4-[3-(2-methoxybenzyloxy)-propoxy]-phenyl}-piperazin-2-one]"
3,> 1,"COc1ccccc1COCCCOc1ccc(N2C(=O)CNC[C@@H]2COCc2c(Cl)cccc2Cl)cc1 [Example 17, (6R)-6-(2,6-dichlorobenzyloxymethyl)-1-{4-[3-(2-methoxybenzyloxy)-propoxy]-phenyl}-piperazin-2-one]"
4,> 1,"COc1ccccc1COCCCOc1ccc(N2C(=O)CNC[C@@H]2COCc2cccc(F)c2)cc1 [Example 18, (6R)-6-(3-fluorobenzyloxymethyl)-1-{4-[3-(2-methoxybenzyloxy)-propoxy]-phenyl}-piperazin-2-one]"
5,> 1,"COc1ccccc1COCCCOc1ccc(N2C(=O)CNC[C@@H]2COCc2ccc(F)cc2C(F)(F)F)cc1 [Example 19, (6R)-6-(4-fluoro-2-trifluoromethylbenzyloxymethyl)-1-{4-[3-(2-methoxybenzyloxy)-propoxy]-phenyl}-piperazin-2-one]"
6,> 1,"COc1ccccc1COCCCOc1ccc(N2C(=O)CNC[C@@H]2COCc2cc(Cl)cc(Cl)c2)cc1 [Example 20, (6R)-6-(3,5-dichlorobenzyloxymethyl)-1-{4-[3-(2-methoxybenzyloxy)-propoxy]-phenyl}-piperazin-2-one]"
7,> 1,"COc1ccccc1COCCCOc1ccc(N2C(=O)CNC[C@@H]2COCc2ccccc2C)cc1 [Example 21, (6R)-1-{4-[3-(2-methoxybenzyloxy)-propoxy]-phenyl}-6-(2-methylbenzyloxymethyl)-piperazin-2-one]"
8,> 1,"COc1ccccc1COCCCOc1ccc(N2C(=O)CNC[C@@H]2COCc2ccc(F)cc2Cl)cc1 [Example 22, (6R)-6-(2-chloro-4-fluorobenzyloxymethyl)-1-{4-[3-(2-methoxybenzyloxy)-propoxy]-phenyl}-piperazin-2-one]"
9,0.117,"COc1ccccc1COCCCOc1ccc(N2C(=O)CNC[C@@H]2COCc2cccnc2)cc1 [Example 23, (6R)-1-{4-[3-(2-methoxybenzyloxy)-propoxy]-phenyl}-6-(pyridin-3-ylmethoxymethyl)-piperazin-2-one]"
10,0.107,"COc1ccccc1COCCCOc1ccc(N2C(=O)CNC[C@@H]2COCc2ccc(Cl)c(C(F)(F)F)c2)cc1 [Example 24, (6R)-6-(4-chloro-3-trifluoromethylbenzyloxymethyl)-1-{4-[3-(2-methoxybenzyloxy)-propoxy]-phenyl}-piperazin-2-one]"
11,> 1,"COc1ccccc1COCCCOc1ccc(N2C(=O)CNC[C@@H]2COCc2ccncc2)cc1 [Example 25, (6R)-1-{4-[3-(2-methoxybenzyloxy)-propoxy]-phenyl}-6-(pyridin-4-ylmethoxymethyl)-piperazin-2-one]"
12,0.132,"COc1ccccc1COCCCOc1ccc(N2C(=O)CNC[C@@H]2COCc2ccc(F)c(C(F)(F)F)c2)cc1 [Example 26, (6R)-6-(4-fluoro-3-trifluoromethylbenzyloxymethyl)-1-{4-[3-(2-methoxybenzyloxy)-propoxy]-phenyl}-piperazin-2-one]"
13,> 1,"COc1ccccc1COCCCOc1ccc(N2C(=O)CNC[C@@H]2COCc2ccc(F)c(C)c2)cc1 [Example 27, (6R)-6-(4-fluoro-3-methylbenzyloxymethyl)-1-{4-[3-(2-methoxybenzyloxy)-propoxy]-phenyl}-piperazin-2-one]"
14,> 1,"COc1ccccc1COCCCOc1ccc(N2C(=O)CNC[C@@H]2COCc2ccc(C#N)cc2)cc1 [Example 28, (6R)-4-(1-{4-[3-(2-methoxybenzyloxy)-propoxy]-phenyl}-6-oxopiperazin-2-ylmethoxymethyl)-benzonitrile]"
